In patent publication US20230270832A1, “MAGEA1 IMMUNOGENIC PEPTIDES, BINDING PROTEINS RECOGNIZING MAGEA1 IMMUNOGENIC PEPTIDES, AND USES THEREOF” (TScan Therapeutics, Inc., priority 2021, published 2023):

System: TCR-transduced T cells
Assay: Peptide-pulsed HLA-C*07:02 monoallelic HEK293T granzyme-activated fluorescent reporter cells co-cultured with TCR-transduced T cells
Format: cell-based, human
Procedure: Overlapping peptide sequences with a score >2.5 fold were used to predict MHC binding with NetMHC4.0 (available on the World Wide Web at cbs.dtu.dk) and the top predicted MHC binding peptides were synthesized (Genscript). Monoallelic C*07:02 HEK293T reporter cells were pulsed with serial dilutions 0-20,000 ng/ml of each peptide candidate for 1 hour and then co-cultured with TCR-transduced T cells (1-IN-32-39 or HN-32-41) at an E:T ratio of ˜1:1. After 4 hours, the cultures were harvested by pipetting and fluorescence of the reporter was detected using a CytoFLEX™ S instrument (Beckman Coulter). Additionally, monoallelic C*07:02 HEK293 suspension cells were pulsed with serial dilutions 0-500 pM of peptide VBFFFPSL (SEQ ID NO: 1) for 2 hours and then co-cultured with TCR-transduced T cells (HN-32-39 or HN-32-41) at an E:T ratio of 1:1 overnight. Cells were then harvested by pipetting and centrifuged at 2,000 rpm for 2 minutes. The supernatant was collected for IFNγ measurement using a human IFNγ 3rd generation single-plex assay (Protein Simple).

VRFFFPSL (listed as Homo sapiens) [VBFFFPSL]
immunogenicity in peptide validation (FIGS. 2D and 2E): most favorable immunogenicity
reactivity of the TCR-transduced T cells to peptide-pulsed reporter cells (epitope confirmation) (HLA-C*07:02 monoallelic HEK293T, granzyme-activated fluorescent reporter, FIGS. 2D and 2E left): minimal MAGEA1 epitope
